Common to all, as to assay type: cell-based
One test addresses T1, hPPARδ (Homo sapiens, UniProt Q03181).
T1 construct: is generated by PCR (PPARδ: aa 128-C-terminus); expressed in transfected cells; host or cells: HEK293
T1 sequence (Q03181 128-441 limits assumed): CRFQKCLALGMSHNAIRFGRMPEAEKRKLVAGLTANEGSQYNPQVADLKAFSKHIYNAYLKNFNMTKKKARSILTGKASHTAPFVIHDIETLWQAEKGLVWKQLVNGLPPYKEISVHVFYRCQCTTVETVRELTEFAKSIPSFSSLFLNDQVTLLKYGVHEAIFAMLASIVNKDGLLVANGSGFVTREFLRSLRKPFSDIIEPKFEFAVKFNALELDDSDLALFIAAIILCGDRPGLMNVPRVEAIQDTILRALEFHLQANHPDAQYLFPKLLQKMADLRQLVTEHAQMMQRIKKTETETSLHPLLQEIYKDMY
The experiment in a line: PPAR transient transactivation assay, hPPARδ. On the procedure:
“Activation” herein is defined as the abovementioned downstream response, which in the case of PPAR's is gene transcription. Gene transcription, in some cases, is measured indirectly as downstream production of proteins reflective of the activation of the particular PPAR subtype under study. Alternatively, an artificial reporter construct, in some cases, is employed to study the activation of the individual PPAR's expressed in cells. The ligand binding domain of the particular receptor to be studied, in some embodiments, is fused to the DNA binding domain of a transcription factor, which produces convenient laboratory readouts, such as the yeast GAL4 transcription factor DNA binding domain. The fusion protein, in some cases, is transfected into a laboratory cell line along with a Gal4 enhancer, which effects the expression of the luciferase protein. When such a system is transfected into a laboratory cell line, binding of a receptor agonist to the fusion protein will result in light emission.
The PPAR transient transactivation assay, in some cases, is based on transient transfection into human HEK293 cells of two plasmids encoding a chimeric test protein and a reporter protein respectively. The chimeric test protein, in some cases, is a fusion of the DNA binding domain (DBD) from the yeast GAL4 transcription factor to the ligand binding domain (LBD) of the human PPAR proteins. The PPAR-LBD moiety harbored in addition to the ligand binding pocket also has the native activation domain, allowing the fusion protein to function as a PPAR ligand dependent transcription factor. The GAL4 DBD will direct the chimeric protein to bind only to Gal4 enhancers (of which none existed in HEK293 cells). The reporter plasmid contained a Gal4 enhancer driving the expression of the firefly luciferase protein. After transfection, HEK293 cells expressed the GAL4-DBD-PPAR-LBD fusion protein. […] The amount of luciferase protein is measured by light emission after addition of the appropriate substrate. […]

In a further test the test system is rat muscle cell lines. The test can be described thus: fatty acid oxidation in rat muscle cell lines.
A further test has as its target T2, LXRα (Homo sapiens, UniProt Q13133).
T2 sequence (Q13133 1-447): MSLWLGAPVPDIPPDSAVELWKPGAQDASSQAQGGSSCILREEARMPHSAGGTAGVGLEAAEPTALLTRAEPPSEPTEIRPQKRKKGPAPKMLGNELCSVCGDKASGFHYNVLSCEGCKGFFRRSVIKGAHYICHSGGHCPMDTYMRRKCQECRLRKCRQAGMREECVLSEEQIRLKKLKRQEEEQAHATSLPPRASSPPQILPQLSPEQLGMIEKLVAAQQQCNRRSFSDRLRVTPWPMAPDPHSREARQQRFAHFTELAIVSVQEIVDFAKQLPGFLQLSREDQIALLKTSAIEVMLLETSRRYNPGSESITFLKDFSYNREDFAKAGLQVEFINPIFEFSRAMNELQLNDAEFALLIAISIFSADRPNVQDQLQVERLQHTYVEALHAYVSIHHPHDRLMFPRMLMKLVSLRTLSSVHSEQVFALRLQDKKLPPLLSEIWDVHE
The test can be described thus: activity on nuclear receptor LXRα.

A further test concerns human muscle cell lines. The experiment in a line: fatty acid oxidation in human muscle cell lines.

Structures are written as SMILES.

With `Cc1cc(OC/C=C(/c2ccc(F)cc2)c2ccc(C#CCN3CCOCC3)cc2)ccc1OCC(=O)O` [Compound 1, (E)-[4-[3-(4-Fluorophenyl)-3-[4-[3-(morpholin-4-yl)propynyl]phenyl]allyloxy]-2-methyl-phenoxy]acetic acid], the “type of agonism on PPARδ” value at hPPARδ is given as “full agonist”. Also, on hPPARδ (PPARδ over PPARα, human PPAR subtypes in vitro), the “selectivity for PPARδ over PPARα” value is listed as “at least 100 fold”. Also, on hPPARδ (PPARδ over PPARγ, human PPAR subtypes in vitro), the “selectivity for PPARδ over PPARγ” value is “at least 400 fold”. The fatty acid oxidation result with rat muscle cell lines and in the test with human muscle cell lines was “dose-dependent increase” each time. At LXRα, the “activity on LXRα” value is “did not show any”.

Source of the values: patent publication US20220023306A1, “USE OF A PPAR-DELTA AGONIST IN THE TREATMENT OF FATTY ACID OXIDATION DISORDERS (FAOD)” (Reneo Pharmaceuticals, Inc., priority 2019, published 2022).
